Targets include Cytochrome P450 2C9 (Homo sapiens, UniProt P11712); Cytochrome P450 2D6 (Homo sapiens, UniProt P10635); Cytochrome P450 3A4 (Homo sapiens, UniProt P08684).
The target of a further assay is Nonstructural protein 1 (Influenza A virus, UniProt Q194T2). Type of assay: functional, Influenza A virus (A/California/07/2009(H1N1)).
The next assay has as its system Vero. Briefly: cells. Type of assay: functional. To be noted: Chlorocebus sabaeus.
The target in a further assay is T1, Leucine aminopeptidase (Plasmodium falciparum 3D7, UniProt Q8IL11).
T1 sequence (Q8IL11 whole entry): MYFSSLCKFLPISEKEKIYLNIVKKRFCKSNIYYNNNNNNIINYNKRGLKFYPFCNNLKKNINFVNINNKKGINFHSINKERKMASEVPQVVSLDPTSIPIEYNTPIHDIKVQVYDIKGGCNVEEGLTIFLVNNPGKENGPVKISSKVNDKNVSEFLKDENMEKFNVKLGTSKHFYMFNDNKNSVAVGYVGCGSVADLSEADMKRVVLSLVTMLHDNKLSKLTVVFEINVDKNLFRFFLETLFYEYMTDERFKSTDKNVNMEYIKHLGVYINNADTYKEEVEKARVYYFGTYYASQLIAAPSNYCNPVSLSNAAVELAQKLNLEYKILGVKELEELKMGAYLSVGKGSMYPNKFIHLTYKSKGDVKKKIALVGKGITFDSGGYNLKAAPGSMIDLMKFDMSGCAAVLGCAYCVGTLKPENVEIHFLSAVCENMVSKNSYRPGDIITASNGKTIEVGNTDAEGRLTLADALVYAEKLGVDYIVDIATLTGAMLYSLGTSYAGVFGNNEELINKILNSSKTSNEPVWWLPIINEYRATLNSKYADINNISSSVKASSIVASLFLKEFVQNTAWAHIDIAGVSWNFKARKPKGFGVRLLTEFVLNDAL
Briefly: P. falciparum M17LAP inhibitors, primary screen, biochemical, fluorogenic H-Leu-NHMec substrate, 1536-well (AID 1619). Type of assay: functional.

The target of a further assay is T2, Cytochrome P450 1A2 (Homo sapiens, UniProt P05177).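 Also: PubChem cytochrome P450 panel assay, CYP1A2 panel member.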
T2 sequence (P05177 whole entry): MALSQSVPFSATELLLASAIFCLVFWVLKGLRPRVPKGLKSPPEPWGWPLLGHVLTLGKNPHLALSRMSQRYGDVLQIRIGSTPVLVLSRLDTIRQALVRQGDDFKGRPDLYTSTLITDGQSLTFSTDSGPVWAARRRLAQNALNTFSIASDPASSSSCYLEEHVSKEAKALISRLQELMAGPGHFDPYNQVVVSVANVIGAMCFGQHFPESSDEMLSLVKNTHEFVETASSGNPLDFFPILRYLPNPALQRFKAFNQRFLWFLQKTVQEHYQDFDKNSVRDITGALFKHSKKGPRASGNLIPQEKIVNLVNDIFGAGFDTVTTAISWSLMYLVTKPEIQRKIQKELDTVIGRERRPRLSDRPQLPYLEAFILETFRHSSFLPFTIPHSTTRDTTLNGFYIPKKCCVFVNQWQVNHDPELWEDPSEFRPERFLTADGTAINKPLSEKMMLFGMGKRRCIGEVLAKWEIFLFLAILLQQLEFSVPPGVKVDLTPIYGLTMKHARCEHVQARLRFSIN

Assay [1] is described as follows: HEp-2 cell cytotoxicity, dose response, cytotoxicity control for RSV inhibitor project, HTS (AID 2410). Type of assay: functional. Particulars: human respiratory syncytial virus.
The target in assay [2] is T3, Heat shock factor protein 1 (Mus musculus, UniProt P38532).
T3 sequence (P38532 whole entry): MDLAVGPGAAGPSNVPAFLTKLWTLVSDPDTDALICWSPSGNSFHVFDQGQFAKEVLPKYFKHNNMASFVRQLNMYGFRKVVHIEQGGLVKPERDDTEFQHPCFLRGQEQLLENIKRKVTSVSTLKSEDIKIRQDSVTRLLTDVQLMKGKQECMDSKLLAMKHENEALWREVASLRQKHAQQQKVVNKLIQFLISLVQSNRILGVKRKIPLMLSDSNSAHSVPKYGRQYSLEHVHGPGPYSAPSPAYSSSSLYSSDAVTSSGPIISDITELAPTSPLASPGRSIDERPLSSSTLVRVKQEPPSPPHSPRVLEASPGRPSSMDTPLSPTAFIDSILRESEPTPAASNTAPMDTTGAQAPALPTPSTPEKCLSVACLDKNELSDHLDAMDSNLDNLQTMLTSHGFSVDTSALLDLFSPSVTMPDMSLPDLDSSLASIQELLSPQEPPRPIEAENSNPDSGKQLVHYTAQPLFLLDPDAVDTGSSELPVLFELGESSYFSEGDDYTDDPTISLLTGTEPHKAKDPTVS
Briefly: HSF1 potentiators in luciferase reporter cells, confirmation, cell-based, NIH3T3, luminescence, dose retest (AID 435004).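 Also: stress induced by proteasome inhibitor MG132 added 30 min after compound; luciferase reporter driven by HSF1 response element in NIH3T3 cells; actives raise luminescence as potentiators of the MG132 stress response.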 It is filed as functional. A general note: In a reporter assay the amount or activity of a reporter protein is the signal.

Assay [3] is described as follows: Luminescence Cell-Based Dose Retest to Confirm Inhibitors of Cancer Stem Cells. [Related pubchem assays (depositor defined):AID2717, AID2721]. Type of assay: functional, Homo sapiens. To be noted: Homo sapiens.
The target in a further assay is T4, Protein RecA (Mycobacterium tuberculosis, UniProt P9WHJ3).
T4 sequence (P9WHJ3 whole entry): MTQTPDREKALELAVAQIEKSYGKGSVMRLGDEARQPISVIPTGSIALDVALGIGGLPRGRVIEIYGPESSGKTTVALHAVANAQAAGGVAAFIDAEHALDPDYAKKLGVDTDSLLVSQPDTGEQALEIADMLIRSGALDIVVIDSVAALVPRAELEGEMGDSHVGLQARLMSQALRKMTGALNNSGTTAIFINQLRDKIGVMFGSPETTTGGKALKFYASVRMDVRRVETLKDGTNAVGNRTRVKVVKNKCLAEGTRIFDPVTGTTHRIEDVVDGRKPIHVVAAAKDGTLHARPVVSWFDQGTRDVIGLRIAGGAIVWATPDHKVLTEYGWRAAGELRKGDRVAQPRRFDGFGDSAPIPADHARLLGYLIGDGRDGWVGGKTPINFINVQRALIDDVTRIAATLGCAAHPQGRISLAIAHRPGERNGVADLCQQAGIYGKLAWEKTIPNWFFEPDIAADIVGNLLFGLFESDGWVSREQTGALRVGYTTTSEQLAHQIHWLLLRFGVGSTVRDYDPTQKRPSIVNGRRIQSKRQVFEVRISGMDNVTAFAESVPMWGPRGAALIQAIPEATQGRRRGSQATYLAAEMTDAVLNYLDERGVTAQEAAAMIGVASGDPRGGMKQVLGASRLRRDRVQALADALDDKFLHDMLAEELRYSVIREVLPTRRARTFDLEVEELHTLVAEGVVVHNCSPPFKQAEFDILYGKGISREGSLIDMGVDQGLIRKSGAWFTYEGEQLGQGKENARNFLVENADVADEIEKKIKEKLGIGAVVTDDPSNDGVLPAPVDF
As to the kind of experiment: Fluorescence Cell-Free Homogeneous Dose Retest to Identify Inhibitors of RecA-Intein Splicing Activity. [Related pubchem assays (depositor defined):AID2097, AID2223, AID489010, AID492950]. It is filed as functional.

For assay [4], the target named is T5, Replicative DNA helicase DnaB (Mycobacterium tuberculosis, UniProt P9WMR3).
T5 sequence (P9WMR3 whole entry): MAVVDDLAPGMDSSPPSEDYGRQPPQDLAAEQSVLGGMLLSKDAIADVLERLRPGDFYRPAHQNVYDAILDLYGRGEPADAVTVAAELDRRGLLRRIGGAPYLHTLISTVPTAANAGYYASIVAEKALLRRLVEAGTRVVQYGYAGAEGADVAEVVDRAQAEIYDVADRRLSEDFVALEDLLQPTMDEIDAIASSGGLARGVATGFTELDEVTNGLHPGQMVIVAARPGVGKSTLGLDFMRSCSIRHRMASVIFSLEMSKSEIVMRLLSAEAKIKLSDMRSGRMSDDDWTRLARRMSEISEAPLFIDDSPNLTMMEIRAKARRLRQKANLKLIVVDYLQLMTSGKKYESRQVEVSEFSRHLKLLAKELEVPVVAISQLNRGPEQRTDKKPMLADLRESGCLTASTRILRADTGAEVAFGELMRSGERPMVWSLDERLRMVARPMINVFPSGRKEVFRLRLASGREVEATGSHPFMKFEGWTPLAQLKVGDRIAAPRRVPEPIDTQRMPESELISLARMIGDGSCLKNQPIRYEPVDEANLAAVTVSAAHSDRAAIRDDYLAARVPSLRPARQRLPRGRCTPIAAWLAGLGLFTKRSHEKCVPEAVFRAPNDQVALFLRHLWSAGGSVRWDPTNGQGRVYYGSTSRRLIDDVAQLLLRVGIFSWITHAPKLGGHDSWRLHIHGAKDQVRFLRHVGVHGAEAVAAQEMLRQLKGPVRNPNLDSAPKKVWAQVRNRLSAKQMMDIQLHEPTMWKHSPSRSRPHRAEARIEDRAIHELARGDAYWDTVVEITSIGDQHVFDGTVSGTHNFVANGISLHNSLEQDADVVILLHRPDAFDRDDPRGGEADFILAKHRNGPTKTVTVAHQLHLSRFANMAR
Briefly: DnaB intein splicing inhibitors, dose response, biochemical, cell-free fluorescence (AID 449749). It is filed as functional.

Assay [5] concerns the target T6, Histone-lysine N-methyltransferase NSD2 (Homo sapiens, UniProt O96028).
T6 sequence (O96028 whole entry): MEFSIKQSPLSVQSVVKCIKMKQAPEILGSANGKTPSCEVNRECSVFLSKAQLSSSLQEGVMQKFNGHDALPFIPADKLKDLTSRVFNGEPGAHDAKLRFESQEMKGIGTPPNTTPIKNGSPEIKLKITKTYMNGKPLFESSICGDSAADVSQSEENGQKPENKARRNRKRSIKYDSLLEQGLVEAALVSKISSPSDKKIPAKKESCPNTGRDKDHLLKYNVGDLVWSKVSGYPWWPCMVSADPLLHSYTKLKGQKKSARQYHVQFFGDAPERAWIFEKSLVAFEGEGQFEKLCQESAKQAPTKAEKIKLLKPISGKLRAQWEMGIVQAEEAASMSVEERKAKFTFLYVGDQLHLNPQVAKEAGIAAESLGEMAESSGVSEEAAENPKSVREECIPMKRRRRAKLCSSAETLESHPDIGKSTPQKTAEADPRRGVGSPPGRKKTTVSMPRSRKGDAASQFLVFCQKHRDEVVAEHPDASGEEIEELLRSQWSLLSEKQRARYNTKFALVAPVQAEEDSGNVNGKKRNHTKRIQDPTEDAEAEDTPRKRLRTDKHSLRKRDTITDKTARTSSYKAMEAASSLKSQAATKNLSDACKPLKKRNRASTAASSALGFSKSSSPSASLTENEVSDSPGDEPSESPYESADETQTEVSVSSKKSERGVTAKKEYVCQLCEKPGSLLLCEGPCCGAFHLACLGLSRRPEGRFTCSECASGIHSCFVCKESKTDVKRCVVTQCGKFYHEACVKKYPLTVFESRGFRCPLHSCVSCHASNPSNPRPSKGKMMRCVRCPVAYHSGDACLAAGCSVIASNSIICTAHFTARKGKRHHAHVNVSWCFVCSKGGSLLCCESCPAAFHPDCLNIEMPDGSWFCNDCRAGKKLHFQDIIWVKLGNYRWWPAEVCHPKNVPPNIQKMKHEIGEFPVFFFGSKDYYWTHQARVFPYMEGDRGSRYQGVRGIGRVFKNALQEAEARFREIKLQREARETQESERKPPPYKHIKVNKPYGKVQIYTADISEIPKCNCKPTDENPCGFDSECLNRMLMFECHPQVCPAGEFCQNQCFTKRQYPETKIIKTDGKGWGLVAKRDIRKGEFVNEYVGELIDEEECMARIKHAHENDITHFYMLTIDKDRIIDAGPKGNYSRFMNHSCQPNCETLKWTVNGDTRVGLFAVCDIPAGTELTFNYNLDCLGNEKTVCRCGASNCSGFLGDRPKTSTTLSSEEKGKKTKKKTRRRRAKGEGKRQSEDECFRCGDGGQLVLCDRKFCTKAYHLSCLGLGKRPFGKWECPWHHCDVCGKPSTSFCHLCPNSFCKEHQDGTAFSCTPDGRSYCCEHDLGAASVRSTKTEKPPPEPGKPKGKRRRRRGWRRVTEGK
Type of assay: biochemical.

Structures are written as SMILES. The source made the active and inactive calls. Where only a bound is given, the exact number is not on record here.

Here are results for 10 molecules from ChEMBL document CHEMBL1201862, “PubChem BioAssay data set” (2004).

Nonstructural protein 1, sequence (Q194T2 whole entry): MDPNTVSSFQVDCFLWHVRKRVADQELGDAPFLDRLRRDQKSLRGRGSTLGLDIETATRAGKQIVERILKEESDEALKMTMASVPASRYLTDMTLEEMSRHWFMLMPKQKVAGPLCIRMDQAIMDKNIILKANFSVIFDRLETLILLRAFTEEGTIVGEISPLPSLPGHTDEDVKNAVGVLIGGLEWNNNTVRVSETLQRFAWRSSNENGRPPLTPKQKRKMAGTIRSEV
Cytochrome P450 2C9, sequence (P11712 whole entry): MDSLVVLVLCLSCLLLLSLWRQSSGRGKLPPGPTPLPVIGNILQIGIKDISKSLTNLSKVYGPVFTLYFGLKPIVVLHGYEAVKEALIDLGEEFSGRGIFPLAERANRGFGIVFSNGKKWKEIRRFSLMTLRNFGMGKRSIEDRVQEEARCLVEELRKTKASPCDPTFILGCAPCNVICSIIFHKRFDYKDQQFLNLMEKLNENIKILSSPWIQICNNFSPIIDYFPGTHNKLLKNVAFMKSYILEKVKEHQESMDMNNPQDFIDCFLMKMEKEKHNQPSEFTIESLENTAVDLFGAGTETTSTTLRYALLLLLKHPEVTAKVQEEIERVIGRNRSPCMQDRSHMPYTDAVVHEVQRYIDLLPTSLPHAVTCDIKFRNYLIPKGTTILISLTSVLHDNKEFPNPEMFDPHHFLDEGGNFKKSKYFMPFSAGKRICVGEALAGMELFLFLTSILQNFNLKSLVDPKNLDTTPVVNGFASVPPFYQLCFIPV
Cytochrome P450 2D6, sequence (P10635 whole entry): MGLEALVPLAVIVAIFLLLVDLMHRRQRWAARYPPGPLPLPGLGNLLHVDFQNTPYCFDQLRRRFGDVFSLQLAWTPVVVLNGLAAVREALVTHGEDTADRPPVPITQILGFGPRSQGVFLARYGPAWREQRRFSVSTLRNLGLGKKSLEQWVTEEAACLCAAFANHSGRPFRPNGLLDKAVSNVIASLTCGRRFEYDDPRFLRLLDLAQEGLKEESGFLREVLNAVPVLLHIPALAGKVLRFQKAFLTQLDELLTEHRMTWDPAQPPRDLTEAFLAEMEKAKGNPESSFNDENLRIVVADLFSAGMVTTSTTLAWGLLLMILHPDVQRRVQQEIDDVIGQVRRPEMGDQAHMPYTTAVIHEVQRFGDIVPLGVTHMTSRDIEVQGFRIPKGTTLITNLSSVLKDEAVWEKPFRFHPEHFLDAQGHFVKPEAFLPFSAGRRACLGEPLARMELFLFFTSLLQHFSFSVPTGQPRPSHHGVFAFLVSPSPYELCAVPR
Cytochrome P450 3A4, sequence (P08684 whole entry): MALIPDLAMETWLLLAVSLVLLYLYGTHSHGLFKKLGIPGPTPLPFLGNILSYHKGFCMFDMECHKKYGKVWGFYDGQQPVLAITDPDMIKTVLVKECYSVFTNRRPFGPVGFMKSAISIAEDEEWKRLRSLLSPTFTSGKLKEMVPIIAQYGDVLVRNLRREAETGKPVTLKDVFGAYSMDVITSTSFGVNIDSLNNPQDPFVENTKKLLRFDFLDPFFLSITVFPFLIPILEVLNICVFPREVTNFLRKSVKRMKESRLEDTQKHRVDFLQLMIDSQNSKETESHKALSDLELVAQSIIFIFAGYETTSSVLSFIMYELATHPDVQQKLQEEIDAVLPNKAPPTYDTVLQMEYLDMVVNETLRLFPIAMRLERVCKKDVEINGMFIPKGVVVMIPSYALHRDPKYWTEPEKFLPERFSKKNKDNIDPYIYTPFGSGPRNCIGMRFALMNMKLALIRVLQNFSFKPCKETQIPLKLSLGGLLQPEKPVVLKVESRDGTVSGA

For `CC(C)Oc1ccccc1/C=N/Nc1ccccc1[N+](=O)[O-]`, at Nonstructural protein 1, the concentration for half-maximal inhibition (IC50) – broadly, the concentration that gives 50% inhibition – is 31.2 µM (active).
Consider `C=C(C(=O)c1ccccc1)C(c1ccccc1)C(C)C(=O)c1ccccc1` (stereo not given), for which the half-maximal cytotoxic concentration (CC50) (commonly the concentration at which the toxic effect on the cells reaches its halfway point) in the assay with Vero is 17.8 µM (active).
The same measure, in the same setting: the result for `O=C1N(c2ccccc2C(F)(F)F)O[C@@]1(c1ccccc1)C1CCCC1` reads 21.6 µM (active).
As for `O=C(COc1ccccc1)NNC(=S)NC(=O)c1ccccc1`, the half-maximal inhibitory concentration (IC50) at Leucine aminopeptidase was 9.22 µM (active). Besides, in the assay on Vero, the CC50 is > 25 µM (active).
For the molecule `O=C(CCCn1c(=S)[nH]c2cc3c(cc2c1=O)OCO3)N1CCN(c2ccccc2)CC1`, the AC50 – broadly, the concentration giving half of the maximal activity seen – is 89.1 nM (inconclusive) on Cytochrome P450 2C9, 1.26 µM (inconclusive) at Cytochrome P450 2D6 and 4.47 µM (inconclusive) on Cytochrome P450 1A2.
For the molecule `Cc1ccc(N=Nc2ccc3ccccc3c2O)cc1`, the IC50 at Nonstructural protein 1 is 5.83 µM (active).
`COc1ccc(C(=O)/C=C/c2ccc(OC)c(Cn3nnc4ccccc43)c2)cc1`: the CC50 is 15.2 µM (active) with Vero and 12.1 µM (active) in [1]. The EC50 (usually the concentration needed to bring the measured effect to its halfway point) in [2] is 14.1 µM (active). Also, in assay [3], the half-maximal activity concentration (AC50) is 6.14 µM (active).
For the molecule `COc1ccc(OC)c(NC2c3ccccc3C(=O)N2Cc2ccc3c(c2)OCO3)c1` (stereo not given), the IC50 on Nonstructural protein 1 is 57.5 µM (active).
In the case of `COC(=O)c1[nH]c2cc(OC)ccc2c1NC(=O)c1nonc1C`, the AC50 is 1260 nM (inconclusive) on Cytochrome P450 2C9, 0.794 µM (inconclusive) at Cytochrome P450 1A2 and 7.08 µM (inconclusive) on Cytochrome P450 3A4.
As for `COc1cc(NC(C)CCCN)c2ncccc2c1Oc1ccccc1` (stereo not given), the EC50 on Protein RecA was 7.94 µM (active). The values for the AC50 in assay [4] and in [5] were > 380 µM (inactive) and 466 nM (active), respectively.
